Results: PubChem BioAssay AID256 (DTP/NCI, 2004)
“And” between values parts separate entries of the source, which are not always exact repeats. Equal values may be shown once. Inconclusive results and toxic doses are left out. How the source made its calls: active means survival T/C of 150% or more; inactive means T/C below 125% in these data.

Test system: CD2F1 mice, L1210 leukemia ip, survival T/C
Experiment: NCI In Vivo Anticancer Drug Screen. Data for tumor model L1210 Leukemia (intraperitoneal) in CD2F1 (CDF1) mice
Conditions: endpoint: mean survival time, higher = longer survival
In short: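 Read-out first: treated-group measurement over vehicle-control measurement, expressed as a ratio. Animals bore a transplanted tumor line and were dosed with compound or vehicle.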

[1] = dose: 100.0 mg/kg/injection, schedule: Q01DX009 (ip), vehicle: saline with Tween-80
[2] = dose: 100.0 mg/kg/injection, schedule: Q04DX003 (ip), vehicle: saline with Tween-80
[3] = dose: 200.0 mg/kg/injection, schedule: Q01DX009 (ip), vehicle: saline with Tween-80
[4] = dose: 200.0 mg/kg/injection, schedule: Q04DX003 (ip), vehicle: saline with Tween-80
[5] = dose: 100.0 mg/kg/injection, schedule: Q01DX001 (ip), vehicle: saline
[6] = dose: 200.0 mg/kg/injection, schedule: Q01DX001 (ip), vehicle: saline
[7] = dose: 400.0 mg/kg/injection, schedule: Q01DX001 (ip), vehicle: saline
[8] = dose: 100.0 mg/kg/injection, schedule: Q04DX002 (ip), vehicle: saline with Tween-80
[9] = dose: 200.0 mg/kg/injection, schedule: Q04DX002 (ip), vehicle: saline with Tween-80
[10] = dose: 400.0 mg/kg/injection, schedule: Q04DX002 (ip), vehicle: saline with Tween-80
[11] = dose: 75.0 mg/kg/injection, schedule: Q01DX001 (ip), vehicle: saline
[12] = dose: 150.0 mg/kg/injection, schedule: Q01DX001 (ip), vehicle: saline
[13] = dose: 300.0 mg/kg/injection, schedule: Q01DX001 (ip), vehicle: saline
[14] = dose: 400.0 mg/kg/injection, schedule: Q04DX003 (ip), vehicle: saline with Tween-80
[15] = dose: 100.0 mg/kg/injection, schedule: Q04DX003 (ip), vehicle: saline
[16] = dose: 200.0 mg/kg/injection, schedule: Q04DX003 (ip), vehicle: saline
[17] = dose: 400.0 mg/kg/injection, schedule: Q01DX009 (ip), vehicle: saline with Tween-80

Measured: T/C

CC(=O)NNC(=O)c1ccc2ccccc2n1
inactive: dose: 50.0 mg/kg/injection, schedule: Q01DX009 (ip), vehicle: saline with Tween-80 96 % of control | dose: 50.0 mg/kg/injection, schedule: Q04DX003 (ip), vehicle: saline with Tween-80 107 % of control | [1] 104 % of control | [2] 103 % of control | [3] 111 % of control | [4] 101 % of control

CCOC(=O)/C=C(/C)N
inactive: [5] 101 % of control | [6] 101 % of control | [7] 107 % of control

CCC(CNCCC(=O)O)(C(=O)O)C(=O)O
inactive: [8] 98 % of control | [9] 98 % of control | [10] 90 % of control

CCCCCCCCCCCCSC(=S)S
inactive: [8] 87 % of control | [9] 91 % of control | [10] 91 % of control

O=P(Cc1ccccc1)(Cc1ccccc1)c1ccccc1
inactive: [11] 95 % of control | [12] 93 % of control | [13] 100 % of control

Cc1ncc(CO)n1C
inactive: dose: 50.0 mg/kg/injection, schedule: Q01DX009 (ip), vehicle: Klucel (hydroxypropylcellulose) (HPC) 94 % of control | dose: 100.0 mg/kg/injection, schedule: Q01DX009 (ip), vehicle: Klucel (hydroxypropylcellulose) (HPC) 105 % of control | dose: 200.0 mg/kg/injection, schedule: Q01DX009 (ip), vehicle: Klucel (hydroxypropylcellulose) (HPC) 105 % of control

O=C(COc1ccccc1)NCc1ccccc1Cl
inactive: [2] 100 % of control | [4] 103 % of control | [14] 91 % of control

CC(=O)OCCN1CC1
inactive: dose: 25.0 mg/kg/injection, schedule: Q01DX009 (ip), vehicle: saline 90 % of control

c1ccc([P+](Cc2ccc3ccccc3n2)(c2ccccc2)c2ccccc2)cc1
inactive: dose: 6.25 mg/kg/injection, schedule: Q01DX009 (ip), vehicle: saline 108 % of control | dose: 12.5 mg/kg/injection, schedule: Q01DX009 (ip), vehicle: saline 112 % of control

CCOC(=O)C(=O)CC1=CC=CC2=NC(=O)CCN12
inactive: dose: 100.0 mg/kg/injection, schedule: Q01DX001 (ip), vehicle: saline with Tween-80 93 % of control | dose: 200.0 mg/kg/injection, schedule: Q01DX001 (ip), vehicle: saline with Tween-80 93 % of control | dose: 400.0 mg/kg/injection, schedule: Q01DX001 (ip), vehicle: saline with Tween-80 102 % of control

NC(=O)C(Cl)(Cl)Cl
inactive: [1] 107 % of control | [15] 103 % of control | [3] 104 % of control | [16] 99 % of control | [17] 103 % of control | dose: 400.0 mg/kg/injection, schedule: Q04DX003 (ip), vehicle: saline 99 % of control

Nc1ccc(CNc2ccccc2)cc1
inactive: dose: 100.0 mg/kg/injection, schedule: Q04DX002 (ip), vehicle: other 95 % of control and 103 % of control | dose: 200.0 mg/kg/injection, schedule: Q04DX002 (ip), vehicle: other 100 % of control and 106 % of control | dose: 400.0 mg/kg/injection, schedule: Q04DX002 (ip), vehicle: other 118 % of control and 91 % of control

CCCC1CC[N-]CC1.CCCC1CC[N-]CC1.[Br][Pt+2]([Br])([Br])[Br]
inactive: dose: 6.25 mg/kg/injection, schedule: Q01DX009 (ip), vehicle: water 94 % of control | dose: 12.5 mg/kg/injection, schedule: Q01DX009 (ip), vehicle: water 96 % of control | dose: 25.0 mg/kg/injection, schedule: Q01DX009 (ip), vehicle: water 97 % of control | dose: 50.0 mg/kg/injection, schedule: Q01DX009 (ip), vehicle: water 91 % of control | dose: 100.0 mg/kg/injection, schedule: Q04DX003 (ip), vehicle: water 90 % of control

CC(C)=CCCc1ccc2c(c1)C(=O)c1ccccc1C2=O
inactive: [8] 88 % of control | [9] 92 % of control | [10] 96 % of control

C=C(Cl)CNC(N)=S
inactive: [2] 99 % of control | [4] 98 % of control

CC(=O)c1cccc([N+](=O)[O-])c1
inactive: dose: 100.0 mg/kg/injection, schedule: Q01DX009 (ip), vehicle: other 105 % of control | dose: 200.0 mg/kg/injection, schedule: Q01DX009 (ip), vehicle: other 97 % of control | dose: 400.0 mg/kg/injection, schedule: Q01DX009 (ip), vehicle: other 102 % of control

CCC[CH2][Sn]1([CH2]CCC)[O]C2C(CO)OC(n3c(Br)c(C(N)=O)c4c(N)ncnc43)C2[O]1 (stereo not given)
inactive: dose: 1.56 mg/kg/injection, schedule: Q01DX009 (ip), vehicle: distilled water + Tween-80 100 % of control | dose: 3.13 mg/kg/injection, schedule: Q01DX009 (ip), vehicle: distilled water + Tween-80 107 % of control

NC(=S)N=Nc1c(O)cc(O)c2[nH]c(=O)ccc12
inactive: [5] 109 % of control

O=C(NCCC1CC=CCC1)c1ccccc1 (stereo not given)
inactive: [1] 97 % of control | [3] 95 % of control | [17] 103 % of control

NC1=NC(=S)CS1
inactive: [11] 95 % of control | [12] 95 % of control | [13] 87 % of control

N#CCc1[nH]nc2ncnc(N)c12
inactive: dose: 12.5 mg/kg/injection, schedule: Q01DX005 (ip), vehicle: water 100 % of control | dose: 25.0 mg/kg/injection, schedule: Q01DX005 (ip), vehicle: water 100 % of control | dose: 50.0 mg/kg/injection, schedule: Q01DX005 (ip), vehicle: water 105 % of control | dose: 100.0 mg/kg/injection, schedule: Q01DX005 (ip), vehicle: water 105 % of control

CCOC(=O)C(C(=S)NC)=S(C)C
inactive: dose: 100.0 mg/kg/injection, schedule: Q01DX001 (ip), vehicle: other 92 % of control | dose: 200.0 mg/kg/injection, schedule: Q01DX001 (ip), vehicle: other 88 % of control | dose: 400.0 mg/kg/injection, schedule: Q01DX001 (ip), vehicle: other 105 % of control

NC(=S)N1N=C(c2cccc([N+](=O)[O-])c2)CCC1=O
inactive: [2] 111 % of control | [4] 111 % of control | [14] 107 % of control

CC(=O)Oc1ccccc1N(C(C)=O)S(=O)(=O)c1ccc(C)cc1
inactive: dose: 50.0 mg/kg/injection, schedule: Q04DX003 (ip), vehicle: saline 98 % of control | [5] 106 % of control | [15] 101 % of control | [6] 108 % of control | [16] 101 % of control | [7] 100 % of control

CN1C(=O)NC(c2cccc(N(CCCl)CCCl)c2)C1=O (stereo not given)
inactive: dose: 25.0 mg/kg/injection, schedule: Q01DX001 (ip), vehicle: Klucel (hydroxypropylcellulose) (HPC) 116 % of control and 108 % of control | dose: 50.0 mg/kg/injection, schedule: Q01DX001 (ip), vehicle: Klucel (hydroxypropylcellulose) (HPC) 120 % of control | dose: 100.0 mg/kg/injection, schedule: Q01DX001 (ip), vehicle: Klucel (hydroxypropylcellulose) (HPC) 121 % of control

CC(C)(C)C(=O)CC(=O)C(C)(C)C.CC(C)(C)C(=O)CC(=O)C(C)(C)C.[Cu]
inactive: dose: 9.5 mg/kg/injection, schedule: Q01DX009 (ip), vehicle: saline with Tween-80 98 % of control | dose: 9.5 mg/kg/injection, schedule: Q04DX003 (ip), vehicle: saline with Tween-80 90 % of control | dose: 19.0 mg/kg/injection, schedule: Q01DX009 (ip), vehicle: saline with Tween-80 102 % of control | dose: 19.0 mg/kg/injection, schedule: Q04DX003 (ip), vehicle: saline with Tween-80 90 % of control | dose: 38.0 mg/kg/injection, schedule: Q04DX003 (ip), vehicle: saline with Tween-80 91 % of control
